The source of these data is ChEMBL document CHEMBL3044594, “Comparison of the inhibitory action of synthetic capsaicin analogues with various NADH-ubiquinone oxidoreductases” (Biochim Biophys Acta, 1996).

The subject of assay [1] is Solanum tuberosum. Kind of assay: Inhibition of Solanum tuberosum (potato) inner mitochondrial membrane NDH2 assessed as […] reductase activity at 100 uM relative to control.
The next assay has as its system Escherichia coli. Kind of assay: Inhibition of Escherichia coli GR19N NDH2 assessed as […] reductase activity at 100 uM relative to control.
The test system of assay [2] is Solanum tuberosum. Description: Inhibition of Solanum tuberosum (potato) submitochondrial particle NDH1 assessed as deaminoNADH-DB reductase activity.

One may read the inhibition as the share of the control response that was lost under treatment.

The structures appear in SMILES notation. Active and inactive are the calls of the source. The rule behind the calls is not given here.

Consider `CCCCCCCOc1cccc(C(=O)NCc2ccc(OC)c(OC)c2)c1`, for which the inhibition result with Solanum tuberosum [1] is “inactive”. For the same molecule, the inhibition in the assay with Escherichia coli is 60%. With `COc1ccc(CNC(=O)c2ccc(Oc3ccc(C(C)(C)C)cc3)cc2)cc1OC`, the values for the inhibition in the assay on Solanum tuberosum [1] and with Escherichia coli were 100% and 60%, respectively. Turning to `CCC(C)(C)c1ccc(Oc2ccc(C(=O)NCc3ccc(OC)c(OC)c3)cc2)cc1`, the inhibition with Escherichia coli is 60%.

Regarding `COc1ccc(CNC(=O)c2ccc(-c3ccccc3)cc2)cc1OC`, the inhibition result in the assay on Solanum tuberosum [1] and in the assay with Escherichia coli was “inactive” each time.

As to `COc1ccc(CNC(=O)c2ccc(Oc3ccc(C)cc3)cc2)cc1OC`, the inhibition result with Solanum tuberosum [1] and with Escherichia coli was “inactive” throughout. For the same molecule, the pI50 entry in the assay with Solanum tuberosum [2] was “inactive”. As for `COc1ccc(OC)c(CNC(=O)c2ccc(Oc3ccc(C(C)(C)C)cc3)cc2)c1`, the inhibition in the assay with Escherichia coli turned out to be 60%. As for `CCCCCCCCCCOc1ccc(C(=O)NCc2ccc(OC)c(OC)c2)cc1`, in the assay on Solanum tuberosum [1], the inhibition entry is “inactive”. In the assay with Escherichia coli, the inhibition turned out to be 70%. In addition, the pI50 result in the assay on Solanum tuberosum [2] is “inactive”. `CCCCCCCCCCCCNCc1ccc(OC)c(OC)c1`: the inhibition result with Escherichia coli is “inactive”. `CCCCCCCCCCCC(=O)NCc1ccc(Cl)c(Cl)c1`: in the assay with Solanum tuberosum [1], the inhibition result was “inactive”. Further, the inhibition in the assay with Escherichia coli worked out at 70%.

On to `CCCCCCCCCCCC(=O)NCc1ccccc1OC`, for which the inhibition entry in the assay on Solanum tuberosum [1] and with Escherichia coli was “inactive” in each case. As to `CCCCCCCCCCCC(=O)NCc1ccc(OC)c(OC)c1`, the inhibition result in the assay with Escherichia coli was “inactive”.

For the molecule `C/C=C(\C)[C@H](O)[C@H](C)/C=C(C)/C=C/C/C(C)=C/Cc1nc(OC)c(OC)c(O)c1C`, in the assay on Escherichia coli, the inhibition turned out to be 50%. For `COc1ccc(CNC(=O)c2ccc(Oc3ccccc3C)cc2)cc1OC`, the inhibition in the assay on Escherichia coli was determined as 90%. The pI50 entry in the assay on Solanum tuberosum [2] is “inactive”. Consider `CCCCCCCOc1ccc(C(=O)NCc2ccc(OC)c(OC)c2)cc1`, for which the inhibition entry with Solanum tuberosum [1] was “inactive”. The inhibition in the assay on Escherichia coli was determined as 60%. As for `CCCCCCCCCCC(=O)NCCc1ccc(OC)c(OC)c1`, the inhibition result in the assay with Solanum tuberosum [1] and in the assay on Escherichia coli was “inactive” each time. As to `CCCCCCCCCCCCC(=O)Nc1ccc(OC)c(OC)c1`, the inhibition entry with Solanum tuberosum [1] and in the assay on Escherichia coli was “inactive” in each case. As to `CCCCCCCCc1ccc(C(=O)NCc2ccc(OC)c(OC)c2)cc1`, the inhibition entry in the assay on Solanum tuberosum [1] is “inactive”. The inhibition in the assay with Escherichia coli stood at 50%.

As for `CCCCCCCCCCCC(=O)NCc1ccc(OC)cc1OC`, the inhibition entry in the assay on Solanum tuberosum [1] and with Escherichia coli was “inactive” throughout. On to `COc1ccc(CNC(=O)c2ccc(C(C)(C)C)cc2)cc1OC`, for which the inhibition entry in the assay with Solanum tuberosum [1] and in the assay with Escherichia coli was “inactive” in each case. In addition, the pI50 result with Solanum tuberosum [2] was “inactive”. For the molecule `COc1ccc(CNC(=O)c2cccc3ccccc23)cc1OC`, the inhibition result with Solanum tuberosum [1] and with Escherichia coli was “inactive” each time. On to `COc1ccc(CNC(=O)c2ccccc2)cc1OC`, for which the inhibition result in the assay on Solanum tuberosum [1] and in the assay on Escherichia coli was “inactive” in each case. Further, the pI50 result with Solanum tuberosum [2] was “inactive”. Turning to `CCCCc1ccc(C(=O)NCc2ccc(OC)c(OC)c2)cc1`, the inhibition entry in the assay on Solanum tuberosum [1] and in the assay with Escherichia coli was “inactive” each time. For the same molecule, the pI50 result in the assay on Solanum tuberosum [2] is “inactive”. Consider `CCCCCCCCCCCCNC(=O)c1ccc(OC)c(OC)c1`, for which the inhibition result with Solanum tuberosum [1] and in the assay with Escherichia coli was “inactive” each time. In the case of `COc1ccc(CNCc2ccc(Oc3ccc(C(C)(C)C)cc3)cc2)cc1OC`, the inhibition result in the assay with Solanum tuberosum [1] is “inactive”. The inhibition in the assay with Escherichia coli was determined as 60%. In the same order, the values of `CCCCCCCCCCCC(=O)NCc1cccc(OC)c1OC` are “inactive” and “inactive”.

For `CCCCCCCCCCCC(=O)NCc1ccc(O)c(OC)c1`, in the assay with Solanum tuberosum [1], the inhibition result was “inactive”. In addition, in the assay with Escherichia coli, the inhibition stood at 70%. In the assay on Solanum tuberosum [2], the pI50 result was “inactive”. Turning to `C=C(C)[C@H]1Cc2c(ccc3c2O[C@@H]2COc4cc(OC)c(OC)cc4[C@@H]2C3=O)O1`, the inhibition entry with Solanum tuberosum [1] is “inactive”. Moreover, in the assay with Escherichia coli, the inhibition was found to be 70%. Consider `CCCCCCCCCCCC(=O)NCc1cc(OC)cc(OC)c1`, for which the inhibition result with Solanum tuberosum [1] and in the assay with Escherichia coli was “inactive” in each case. Turning to `COc1ccc(CNC(=O)c2ccccc2C)cc1OC`, the inhibition entry in the assay on Solanum tuberosum [1] and in the assay on Escherichia coli was “inactive” throughout. Further, the pI50 result in the assay with Solanum tuberosum [2] is “inactive”. Consider `COc1ccc(CNC(=O)c2ccc3ccccc3c2)cc1OC`, for which the inhibition result in the assay on Solanum tuberosum [1] and with Escherichia coli was “inactive” each time. In the case of `CCCCCCCCCCCC(=O)N(C)Cc1ccc(OC)c(OC)c1`, the inhibition entry in the assay with Escherichia coli was “inactive”. As for `CCCCCCCCc1ccc(C(=O)NCc2cc(OC)ccc2OC)cc1`, the inhibition with Escherichia coli was determined as 60%. With `CCCCCCCCCCCC(=O)NCc1cc(C)ccc1C`, the inhibition result in the assay on Solanum tuberosum [1] was “inactive”. Besides, the inhibition with Escherichia coli turned out to be 60%. On the same counts, the results for `CCCCCCCCCCCC(=O)NCc1ccccc1` are “inactive” and “inactive”. On the same counts, the results for `COc1cc(CNC(=O)CCCC/C=C/C(C)C)ccc1O` are “inactive” and 20%.

Regarding `Cc1nn(C)c(Oc2ccccc2)c1/C=N/OCc1ccc(C(=O)OC(C)(C)C)cc1`, the inhibition in the assay on Escherichia coli came out at 60%.

`CCCCCCCCCCCC(=O)NCc1cc(OC)ccc1OC`: the inhibition with Solanum tuberosum [1] turned out to be 100%. The inhibition entry in the assay with Escherichia coli was “inactive”. On the same counts, the results for `COc1ccc(CNC(=O)c2ccc(Oc3ccc(Cc4ccccc4)cc3)cc2)cc1OC` are “inactive” and 50%.

For the molecule `CCCCCCCCCCCC(=O)NCc1ccc(OC)cc1`, the inhibition with Solanum tuberosum [1] is 100%; in the assay on Escherichia coli it was 80%. In the same order, the values of `COc1ccc(CNC(=O)c2ccc(C)cc2)cc1OC` are “inactive” and “inactive”. `COc1ccc(CNC(=O)c2ccc(OCc3ccccc3)cc2)cc1OC`: the inhibition entry with Solanum tuberosum [1] and in the assay on Escherichia coli was “inactive” throughout. Besides, the pI50 result in the assay with Solanum tuberosum [2] was “inactive”. In the case of `CCCCCCCCCCCC(=O)NCc1ccc2c(c1)OCO2`, the inhibition entry in the assay with Solanum tuberosum [1] is “inactive”. Further, the inhibition with Escherichia coli came to 60%.

With `CCCCCCCCCCNC(=O)CCc1ccc(OC)c(OC)c1`, in the assay on Solanum tuberosum [1], the inhibition entry is “inactive”. Also, in the assay on Escherichia coli, the inhibition was 40%.

In the case of `CCCCCCCCCCCNC(=O)Cc1ccc(OC)c(OC)c1`, the inhibition result in the assay on Solanum tuberosum [1] and in the assay on Escherichia coli was “inactive” throughout. As for `CCCCCCCCCCCC(=O)NCc1ccc(C)c(C)c1`, in the assay on Solanum tuberosum [1], the inhibition entry was “inactive”. Also, in the assay on Escherichia coli, the inhibition turned out to be 60%. As to `CCCCCCCOc1ccc(C(=O)NCc2ccc(OC)c(OC)c2)c(O)c1`, the figures for the inhibition with Solanum tuberosum [1] and in the assay on Escherichia coli were 30% and 90%, respectively. On the same counts, the results for `COc1ccc(CN(C)C(=O)c2ccc(Oc3ccc(C(C)(C)C)cc3)cc2)cc1OC` are “inactive” and 40%. In the same order, the values of `CCCCc1ccc(Oc2ccc(C(=O)NCc3ccc(OC)c(OC)c3)cc2)cc1` are “inactive” and 60%. `CCCCCCCCCC(=O)NCCCc1ccc(OC)c(OC)c1`: the inhibition result in the assay with Solanum tuberosum [1] was “inactive”. Further, the inhibition with Escherichia coli was 40%. Also, the pI50 entry in the assay on Solanum tuberosum [2] was “inactive”.

As to `CCCCCCCCCCCC(=O)N(C)Cc1cc(OC)ccc1OC`, the inhibition in the assay on Escherichia coli is 30%. In the case of `CCCCCCCCCCCC(=O)NCc1cccc(OC)c1`, the inhibition in the assay with Solanum tuberosum [1] is 60%. For the same molecule, in the assay with Escherichia coli, the inhibition entry was “inactive”. For `CCCCCCCCc1ccc(C(=O)N(C)Cc2ccc(OC)c(OC)c2)cc1`, in the assay on Escherichia coli, the inhibition worked out at 60%. Same read-out and setting: the result for `CCCCCCCCCCCC(=O)N1CCc2cc(OC)c(OC)cc2C1` reads “inactive”.
